Reference: patent US20220298160A1, “COMPOUNDS USEFUL IN HIV THERAPY” (priority 2019, published 2022)
Where two headings read alike, the source gives them in different places.

Assays:
[1] = tested on: HIV pseudotyped virus (NL4-3 provirus), M184V; format: cell-based; settings: PSV assay; U373 cells expressing human CD4 and CXCR4 or CCR5; luciferase signal after 3 days of culture
[2] = tested on: HIV pseudotyped virus (NL4-3 provirus), WT; test: PSV assay (pseudotyped virus assay), WT; settings: U373 cells expressing human CD4 and CXCR4 or CCR5, luciferase signal after 3 days of culture
Description: A pseudotyped virus assay (PSV) was used to assess the potency of the HIV inhibitor. Replication defective virus was produced by co-transfection of a plasmid containing an NL4-3 provirus [containing a mutation in the envelope open reading frame (ORF) and a luciferase reporter gene replacing the nef ORF] and a CMV-promoter expression plasmid containing an ORF for various HIV gp160 envelope clones. The harvested virus was stored at −80 C in small aliquots and the titer of the virus measured to produce a robust signal for antiviral assays.
The PSV assay was performed by using U373 cells stably transformed to express human CD4, the primary receptor for HIV entry and either human CXCR4 or human CCR5 which are the co-receptors required for HIV entry as target cells for infection. […] This dose-range was applied to U373 cells and the pre-made pseudotyped virus added. The amount of luciferase signal produced after 3 days of culture was used to reflect the level of pseudotyped virus infection. An IC50, or the concentration of inhibitor required to reduce PSV infection by 50% from the infection containing no inhibitor was calculated. […] IC50 values were determined from a 10 point dose response curve using 3-4-fold serial dilution for each compound, which spans a concentration range >1000 fold.

[3] = Human immunodeficiency virus 1, NL43, in Homo sapiens, 72 h, read-out: WT IC50 (μM), PSV assay

## C#C[C@]1(CO)O[C@@H](n2cnc3c(NC(=O)OC(COCCCCC)COC(=O)CCCC)nc(F)nc32)C[C@@H]1O (single isomer, unassigned) [Example 38]
[1]
  IC50: 0.0234 µM
[2]; read-out: WT IC50, PSV assay
  IC50: 0.007 µM

## C#C[C@]1(CO)O[C@@H](n2cnc3c(NC(=O)OC(COC(=O)CCCC)COC(=O)CCCC)nc(F)nc32)C[C@@H]1O [Example 32, 2-(((9-((2R,4S,5R)-5-ethynyl-4-hydroxy-5-(hydroxymethyl)tetrahydrofuran-2-yl)-2-fluoro-9H-purin-6-yl)carbamoyl)oxy)propane-1,3-diyl dipentanoate]
[1]
  IC50: 0.0269 µM
[2]; [3]
  IC50: 0.0075 µM

## C#C[C@]1(COC(=O)NC)O[C@@H](n2cnc3c(N)nc(F)nc32)C[C@@H]1O [Example 5, ((2R,3S,5R)-5-(6-amino-2-fluoro-9H-purin-9-yl)-2-ethynyl-3-hydroxytetrahydrofuran-2-yl)methyl methylcarbamate]
[1]
  IC50: > 25 µM
[2]; [3]
  IC50: 15.4 µM

## C#C[C@]1(CO)O[C@@H](n2cnc3c(N)nc(F)nc32)C[C@@H]1OC(=O)NC [Example 18, (2R,3S,5R)-5-(6-amino-2-fluoro-9H-purin-9-yl)-2-ethynyl-2-(hydroxymethyl)tetrahydrofuran-3-yl methylcarbamate]
[1]
  IC50: 9.11 µM
[2]; [3]
  IC50: 2.03 µM

## C#C[C@]1(COC(=O)OC(COC(=O)CCCCCCCC)COC(=O)CCCCCCCC)O[C@@H](n2cnc3c(N)nc(F)nc32)C[C@@H]1O [Example 9, 2-(((((2R,3S,5R)-5-(6-amino-2-fluoro-9H-purin-9-yl)-2-ethynyl-3-hydroxytetrahydrofuran-2-yl)methoxy)carbonyl)oxy)propane-1,3-diyl dinonanoate]
[1]
  IC50: 0.0221 µM
[2]; [3]
  IC50: 0.0049 µM

## C#C[C@]1(COC(=O)OCc2ccc(OC(=O)CCCCCCCCCCCCCCCCCCC)cc2)O[C@@H](n2cnc3c(N)nc(F)nc32)C[C@@H]1O [Example 14, 4-((((((2R,3S,5R)-5-(6-amino-2-fluoro-9H-purin-9-yl)-2-ethynyl-3-hydroxytetrahydrofuran-2-yl)methoxy)carbonyl)oxy)methyl)phenyl icosanoate]
[1]
  IC50: 2.41 µM
[2]; [3]
  IC50: 1.55 µM

## C#C[C@]1(COC(=O)NCCCCCCCCCCCCCCCCCC)O[C@@H](n2cnc3c(N)nc(F)nc32)C[C@@H]1O [Example 1, ((2R,3S,5R)-5-(6-amino-2-fluoro-9H-purin-9-yl)-2-ethynyl-3-hydroxytetrahydrofuran-2-yl)methyl octadecylcarbamate]
[1]
  IC50: > 25 µM
[2]; [3]
  IC50: > 25 µM

## C#C[C@]1(CO)O[C@@H](n2cnc3c(N)nc(F)nc32)C[C@@H]1OC(=O)N(CC)CC [Example 21, (2R,3S,5R)-5-(6-amino-2-fluoro-9H-purin-9-yl)-2-ethynyl-2-(hydroxymethyl)tetrahydrofuran-3-yl diethylcarbamate]
[1]
  IC50: > 25 µM
[2]; [3]
  IC50: 14.7 µM

## C#C[C@]1(CO)O[C@@H](n2cnc3c(N)nc(F)nc32)C[C@@H]1OC(=O)OC(COC(C)=O)COC(C)=O [Example 28, 2-(((((2R,3S,5R)-5-(6-amino-2-fluoro-9H-purin-9-yl)-2-ethynyl-2-(hydroxymethyl)tetrahydrofuran-3-yl)oxy)carbonyl)oxy)propane-1,3-diyl diacetate]
[1]
  IC50: 0.0392 µM
[2]; [3]
  IC50: 0.0106 µM

## C#C[C@]1(CO)O[C@@H](n2cnc3c(N)nc(F)nc32)C[C@@H]1OC(=O)OCc1ccc(OC(=O)CCCCCCCCCCCCCCCCCCC)cc1 [Example 11, 4-((((((2R,3S,5R)-5-(6-amino-2-fluoro-9H-purin-9-yl)-2-ethynyl-2-(hydroxymethyl)tetrahydrofuran-3-yl)oxy)carbonyl)oxy)methyl)phenyl icosanoate]
[1]
  IC50: 3.21 µM
[2]; [3]
  IC50: 2.31 µM
